# Source: PubChem BioAssay (NCI)
#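 GI50: concentration for 50% inhibition of growth. TGI marks complete inhibition of growth.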
# How the values were obtained:
# Experiment in all cases: NCI tumour cell line growth inhibition, 384-well format
# HCT-15 colon = tested on: HCT-15 colon
# TK-10 renal = tested on: TK-10 renal
# SF-539 CNS = tested on: SF-539 CNS
# SW-620 colon = tested on: SW-620 colon
# HOP-92 NSCLC = tested on: HOP-92 NSCLC
# HCC-2998 colon = tested on: HCC-2998 colon
# ACHN renal = tested on: ACHN renal
# NCI-H522 lung = tested on: NCI-H522 lung
# PC-3 prostate = tested on: PC-3 prostate
# U251 glioblastoma = tested on: U251 glioblastoma
# OVCAR-3 ovarian = tested on: OVCAR-3 ovarian
# MDA-MB-435 melanoma = tested on: MDA-MB-435 melanoma
# NCI/ADR-RES ovarian = tested on: NCI/ADR-RES ovarian
# SN12C renal = tested on: SN12C renal
# MALME-3M melanoma = tested on: MALME-3M melanoma
# SK-MEL-2 melanoma = tested on: SK-MEL-2 melanoma
# SF-295 CNS = tested on: SF-295 CNS
# MDA-MB-231 breast = tested on: MDA-MB-231 breast
# RPMI-8226 leukemia = tested on: RPMI-8226 leukemia
# BT-549 breast = tested on: BT-549 breast
# NCI-H23 lung = tested on: NCI-H23 lung
# MCF7 breast = tested on: MCF7 breast
# NCI-H460 NSCLC = tested on: NCI-H460 NSCLC
# SK-MEL-5 melanoma = tested on: SK-MEL-5 melanoma
# HCT-116 colon = tested on: HCT-116 colon
# HL-60(TB) leukemia = tested on: HL-60(TB) leukemia
# NCI-H226 lung = tested on: NCI-H226 lung
# SR leukemia = tested on: SR leukemia
# K-562 leukemia = tested on: K-562 leukemia
# SK-OV-3 ovarian = tested on: SK-OV-3 ovarian
# SF-268 CNS = tested on: SF-268 CNS
# A549 NSCLC = tested on: A549 NSCLC
# A498 renal = tested on: A498 renal
# UO-31 renal = tested on: UO-31 renal
# MDA-MB-468 breast = tested on: MDA-MB-468 breast
# COLO 205 colon = tested on: COLO 205 colon
# CCRF-CEM leukemia = tested on: CCRF-CEM leukemia
# OVCAR-5 ovarian = tested on: OVCAR-5 ovarian
# UACC-257 melanoma = tested on: UACC-257 melanoma
# KM12 colon = tested on: KM12 colon
# IGROV1 ovarian = tested on: IGROV1 ovarian
# T-47D breast = tested on: T-47D breast
# M14 melanoma = tested on: M14 melanoma
# SNB-19 CNS = tested on: SNB-19 CNS
# UACC-62 melanoma = tested on: UACC-62 melanoma
# HT29 colon = tested on: HT29 colon
# SK-MEL-28 melanoma = tested on: SK-MEL-28 melanoma
# HOP-62 NSCLC = tested on: HOP-62 NSCLC
# LOX IMVI melanoma = tested on: LOX IMVI melanoma
# OVCAR-8 ovarian = tested on: OVCAR-8 ovarian
# 786-0 renal = tested on: 786-0 renal
# MOLT-4 leukemia = tested on: MOLT-4 leukemia
# RXF 393 renal = tested on: RXF 393 renal
# OVCAR-4 ovarian = tested on: OVCAR-4 ovarian
# CAKI-1 renal = tested on: CAKI-1 renal
# NCI-H322M lung = tested on: NCI-H322M lung
# DU-145 prostate = tested on: DU-145 prostate
smiles,measurement,setting,value
Cc1c(-c2ccc(N3CCc4cccc(C(=O)Nc5nc6ccccc6s5)c4C3)nc2C(=O)O)cnn1CC12CC3CC(CC(C3)C1)C2,GI50,HCT-15 colon,4.28 µM
same,TGI,HCT-15 colon,16.6 µM
same,GI50,TK-10 renal,2.48 µM
same,TGI,TK-10 renal,16 µM
same,GI50,SF-539 CNS,14.6 µM
same,TGI,SF-539 CNS,27.8 µM
same,GI50,SW-620 colon,12.4 µM
same,TGI,SW-620 colon,24.8 µM
same,GI50,HOP-92 NSCLC,< 0.01 µM
same,TGI,HOP-92 NSCLC,0.0174 µM
same,GI50,HCC-2998 colon,< 0.01 µM
same,TGI,HCC-2998 colon,0.0661 µM
same,GI50,ACHN renal,11.6 µM
same,TGI,ACHN renal,23.8 µM
same,GI50,NCI-H522 lung,3.66 µM
same,TGI,NCI-H522 lung,17.6 µM
same,GI50,PC-3 prostate,4.89 µM
same,TGI,PC-3 prostate,17.4 µM
same,GI50,U251 glioblastoma,11.6 µM
same,TGI,U251 glioblastoma,23.9 µM
same,GI50,OVCAR-3 ovarian,4.03 µM
same,TGI,OVCAR-3 ovarian,18.1 µM
same,GI50,MDA-MB-435 melanoma,2.47 µM
same,TGI,MDA-MB-435 melanoma,14 µM
same,GI50,NCI/ADR-RES ovarian,13.5 µM
same,TGI,NCI/ADR-RES ovarian,26.4 µM
same,GI50,SN12C renal,13.5 µM
same,TGI,SN12C renal,26.4 µM
same,GI50,MALME-3M melanoma,11.6 µM
same,TGI,MALME-3M melanoma,23.8 µM
same,GI50,SK-MEL-2 melanoma,< 0.01 µM
same,TGI,SK-MEL-2 melanoma,2.67 µM
same,GI50,SF-295 CNS,3.63 µM
same,TGI,SF-295 CNS,15.2 µM
same,GI50,MDA-MB-231 breast,< 0.01 µM
same,TGI,MDA-MB-231 breast,0.186 µM
same,GI50,RPMI-8226 leukemia,< 0.01 µM
same,TGI,RPMI-8226 leukemia,< 0.01 µM
same,GI50,BT-549 breast,9.65 µM
same,TGI,BT-549 breast,21.4 µM
same,GI50,NCI-H23 lung,8.42 µM
same,TGI,NCI-H23 lung,20.9 µM
same,GI50,MCF7 breast,14.2 µM
same,TGI,MCF7 breast,27.2 µM
same,GI50,NCI-H460 NSCLC,17.1 µM
same,TGI,NCI-H460 NSCLC,30.8 µM
same,GI50,SK-MEL-5 melanoma,12.8 µM
same,TGI,SK-MEL-5 melanoma,25.4 µM
same,GI50,HCT-116 colon,3.88 µM
same,TGI,HCT-116 colon,16.9 µM
same,GI50,HL-60(TB) leukemia,2.53 µM
same,TGI,HL-60(TB) leukemia,5.94 µM
same,GI50,NCI-H226 lung,1 µM
same,TGI,NCI-H226 lung,11.5 µM
same,GI50,SR leukemia,0.0191 µM
same,TGI,SR leukemia,2.47 µM
same,GI50,K-562 leukemia,10.8 µM
same,TGI,K-562 leukemia,22.8 µM
same,GI50,SK-OV-3 ovarian,6.03 µM
same,TGI,SK-OV-3 ovarian,18.7 µM
same,GI50,SF-268 CNS,15.2 µM
same,TGI,SF-268 CNS,28.5 µM
same,GI50,A549 NSCLC,8.57 µM
same,TGI,A549 NSCLC,21 µM
same,GI50,A498 renal,0.0911 µM
same,TGI,A498 renal,2.39 µM
same,GI50,UO-31 renal,1.14 µM
same,TGI,UO-31 renal,12 µM
same,GI50,MDA-MB-468 breast,1.7 µM
same,TGI,MDA-MB-468 breast,7.04 µM
same,GI50,COLO 205 colon,0.272 µM
same,TGI,COLO 205 colon,1.73 µM
same,GI50,CCRF-CEM leukemia,< 0.01 µM
same,TGI,CCRF-CEM leukemia,0.0112 µM
same,GI50,OVCAR-5 ovarian,0.351 µM
same,TGI,OVCAR-5 ovarian,12.5 µM
same,GI50,UACC-257 melanoma,9.83 µM
same,TGI,UACC-257 melanoma,21.5 µM
same,GI50,KM12 colon,11.2 µM
same,TGI,KM12 colon,23.2 µM
same,GI50,IGROV1 ovarian,1.67 µM
same,TGI,IGROV1 ovarian,4 µM
same,GI50,T-47D breast,10.6 µM
same,TGI,T-47D breast,22.4 µM
same,GI50,M14 melanoma,16 µM
same,TGI,M14 melanoma,29.5 µM
same,GI50,SNB-19 CNS,10 µM
same,TGI,SNB-19 CNS,21.6 µM
same,GI50,UACC-62 melanoma,13.6 µM
same,TGI,UACC-62 melanoma,26.4 µM
same,GI50,HT29 colon,12.9 µM
same,TGI,HT29 colon,25.6 µM
same,GI50,SK-MEL-28 melanoma,4.35 µM
same,TGI,SK-MEL-28 melanoma,16.3 µM
same,GI50,HOP-62 NSCLC,15.3 µM
same,TGI,HOP-62 NSCLC,28.7 µM
same,GI50,LOX IMVI melanoma,6.46 µM
same,TGI,LOX IMVI melanoma,18.6 µM
same,GI50,OVCAR-8 ovarian,11.8 µM
same,TGI,OVCAR-8 ovarian,24.1 µM
same,GI50,786-0 renal,3.65 µM
same,TGI,786-0 renal,15.5 µM
same,GI50,MOLT-4 leukemia,< 0.01 µM
same,TGI,MOLT-4 leukemia,< 0.01 µM
same,GI50,RXF 393 renal,< 0.01 µM
same,TGI,RXF 393 renal,0.0108 µM
same,GI50,OVCAR-4 ovarian,0.0115 µM
same,TGI,OVCAR-4 ovarian,13.2 µM
same,GI50,CAKI-1 renal,13.8 µM
same,TGI,CAKI-1 renal,26.8 µM
same,GI50,NCI-H322M lung,7.97 µM
same,TGI,NCI-H322M lung,21 µM
same,GI50,DU-145 prostate,16.7 µM
same,TGI,DU-145 prostate,30.4 µM
